Marks after values point to notes of the source that are not given here.
Legend:
[1] = test system: metastatic tumors made according to the present disclosure; assay: Oxaliplatin treatment of metastatic tumors versus primary GI tumors and subcutaneous xenografts; format: in vivo
[2] = test system: early stage CCIC colon/intestine and ex-GI xenograft tumors (CCR9/CCL25 axis); assay: CCIC xenograft tumor formation after tail vein injection, CCR9/CCL25 blocked before or with cell injection (Table 2); format: in vivo, NOD/SCID mice
Description: CCR9 constitutive and inducible knockdown; Snail or CD26 knockdown in CCIC and NOTCH reporter CCIC. The lentiviral vector pEco-CMV-H1-shRNA-GFP encoding a shRNA hairpin sequence (CCR9: 5′-CTTGTACTGGC[…] ID NO:14; Snail: 5′-GAGCTGCAGG[…] ID NO:15; CD26: 5′-CATTCCTACAC[…] ID NO:16) was used for CCR9, Snail or CD26 expression knockdown and the lentiviral vectors pEco-CMV-H1-GFP (GenTarget Inc, San Diego, Calif.) and pEco-CMV-H1-scrambled-shRNA-GFP served as controls. To generate the lentiviral vectors, the above plasmids were transfected into HEK293T cells with the Genetargetlentivirus packaging mix (GenTarget Inc, San Diego, Calif.) according to the manufacturer's protocol. For CCR9 tetracycline inducible knockdown, the same shRNA hairpin sequence against CCR9 gene was inserted into pLenti-H1-shRNA-RSV (GFP-Puro) vector (GenTarget Inc, San Diego, Calif.) and packaged into lentivirus particles, which were used together with another TetR expression lentivirus (RFP-Bsd)(GenTarget Inc, San Diego, Calif.) to infect CCICs. After antibiotic selection and GFP/RFP dual FACS purification, the CCR9 shRNA knockdown can be induced by 1 ug/ml (in vitro) or 1 mg/ml (in vivo) doxycycline. NOTCH signaling reporter CCIC was generated by infecting CCIC with pCignalLenti RBP-Jk Reporter (GFP) ready lentivirus (SABiosciences, Inc.). After infecting CCIC lines with these lentiviral vectors, stable knockdown clones were obtained through antibiotic selection of blasticidin (Invitrogen, Carlsbad, Calif.). The efficiency of the CCR9, SNAIL or CD26 knockdown in CCIC was verified by Western Blotting and efficiency of NOTCH signaling reporter was tested by 2 μg/ml Jagged-1 (AnaSpec) treatment following by GFP-FACS sorting.
CCIC xenograft tumor formation in colon/intestine and other organs. 0.5-1×10^6CCIC or common CRC cells were injected into 6-8 weeks old non-obese diabetic/severe combined immunodeficient (NOD/SCID) mice (Jackson Laboratory, Bar Harbor, Me.) by tail vein injection. Tumor incidence was monitored 2-3× weekly. When mice became moribund, they were sacrificed immediately, necropsy performed and tumors harvested using a dissecting microscope. For ex vivo GFP imaging of tumor tissues, lentiviral infection by the pEco-CMV-GFP vector was used to generate CCIC lines that stably express GFP and maintained in puromycin selection. 10^6 of these fluorescent CCIC were systemically injected as described above. Intestinal tissues harvested at the time of sacrifice were analyzed for GFP expression with Cri Maestro Imaging Systems (Cambridge Research & Instrumentation Inc, Woburn, Mass.).
For the CCR9 study, native CCICs, CCICs with CCR9, Snail (SNAL1) or CD26 knockdown (or commonly used CRC cell lines such as HCT116, etc. as indicated), CCR9+ CCIC with CCR9 inducible knockdown were intravenously inoculated into the 6-8 weeks old NOD/SCID mice by tail vein. Mice that became moribund were sacrificed immediately, whereas the rest were closely monitored for 16 weeks before sacrifice. To test whether CCL25 antibody could inhibit the CCL25-CCR9 GI homing mechanism in vivo, a dose of 100 ug goat anti-mouse CCL25 neutralization antibody (R&D systems, Cat #AF-481-NA), was IP administrated to each mouse twice (the same dose and schedule as used in). As a negative control, a dose of 100 ug Goat IgG (R&D systems) was administered to each mouse in the control group. Then 1×10^6CCIC were injected into the mice 8 hours after or with the injection of the antibody. To test whether extra-GI metastasis is induced by CCR9/CCL25 signaling blockade, CCL25 neutralization antibody with the same dose was IP administrated to each mouse every three days or 1 mg/ml doxycycline in drinking water was given to mice every other days starting from the fourth week after CCIC inoculation until mice get moribund.

[3] = mice tail vein injected with early stage CCIC, blockade before/concurrent with injection or constitutive shRNA KD

**Q.** Which “chemoresistance of metastatic tumors relative to primary GI tumors and subcutaneous xenografts” value [1] does the source give for `O=C1[O][Pt]2([NH][C@@H]3CCCC[C@H]3[NH]2)[O]C1=O` [oxaiplatin] here?
**A.** Its value is “more chemoresistant”.

**Q.** What does the source list for “CCR9 KD: constitutive lentiviral shRNA against CCR9 (hairpin 5'-CTTGTACTGGCTCGTGTTCAT, SEQ ID NO:14) expressed in CCIC”?
**A.** overall survival of mice vs. control ([2]; mice systemically injected with CCIC, Kaplan-Meier, FIG. 6C): significantly longer; Ex-GI Tumor Incidence (%) [2, 3]: 85.7%; GI Tumor Incidence (%) [2, 3]: 14.3* %; Mean Ex-GI Tumors/Mouse [2, 3]: 105.0*; Mean GI Tumors/mouse [2, 3]: 0.3*; Mean Progression (weeks) ([2]; mice tail vein injected with early stage CCIC, time until moribund, blockade before/concurrent with injection or constitutive shRNA KD): 13.0* weeks

Reference: patent publication US9681647B2, “Mammal with an orthotopic tumor capable of metastasis, a method of making and a method of using” (Cornell University, priority 2012, dated 2017)
